Each compound was assayed against T1, MIF (Homo sapiens, UniProt P14174) (assay: Competitive fluorescence polarization (FP) assay with tracer ligand B). Conditions: MIF Inhibition by Compounds of formula (Ia); Kd calculated from the IC50 of the competitive FP assay, fluorescent ligand B as tracer.
T1 sequence (P14174 2-115 limits assumed): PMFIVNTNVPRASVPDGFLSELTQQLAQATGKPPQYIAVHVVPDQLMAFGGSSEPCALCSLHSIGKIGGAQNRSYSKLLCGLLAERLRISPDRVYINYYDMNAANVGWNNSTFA
Assay type: binding
Method: Determination of the affinities for A and B by FP assay. Determination of Kd values for the tracers followed previously reported protocols for other proteins. Experiments are carried out by quadruplicates in three independent experiments. In a flat black bottom 96 well plate (Corning), add to the third column 300 μL of 1.8 μM MIF in FP buffer (20 mM HEPES, 150 mM NaCl, 0.01% Tween-20, pH 7.4). From this column, using a multichannel pipette make serial dilutions (1:2) into the following wells to a total volume of 150 μL. First column contains 200 μL buffer and is used as a blank, while second column contains 150 μL buffer. 2 μL of DMSO are added to each well to keep 1% of DMSO, followed by the addition of 16.7 nM ligand A or B (48 μL) except first column (blank). Fluorescence polarization is measured at λexc=485±20 nm, λem=535±25 nm using an Infinite F500 plate reader until no FP variation was observed (typically 1 h). From the lowest and highest FP values (tracer free and tracer fully bound to MIF) we calculated the fraction of ligand bound to the protein to ligand total (Lb/Lt) for each concentration of MIF.
Competitive FP assay. In order to calculate the Kd values of the unlabeled compounds, competitive assays were carried out in quadruplicates in three independent experiments. In a flatblack bottom 96 well plate (Corning) 140 μL of FP buffer are added to columns 3-12. First column contains 200 μL buffer (blank), while second column contains 150 μL FP buffer. 10 μL of 1.1 μM MIF are added to columns 3-12 followed by the addition of 2 μL of inhibitor in DMSO at 9 different concentrations. 2 μL of DMSO are added to columns 1-3. After 20 min of incubation at rt 48 μL of 16.7 nM ligand B are added to columns 2-12 and fluorescencepolarization was measured at λexc=485±20 nm, λem=535±25 nm for 1 h. Data are analyzed by a least-squares non-linear fit, generated using Prism 6 in order to determine the compound's IC50. Kd values for each inhibitor are calculated using the following equation based on the IC50, Kd of the tracer (K^t), total (Lt) and bound (Lb) tracer, as well as total MIF concentration (Pt). Samples of 4-IPP and Pontamine Sky Blue were purchased both from Tocris and Santa Cruz Biotechnology.
`COCCOc1ccc(N2Cc3ccc(O)cc3OC2=O)cc1` [Compound C1] showed a Kd of 6 ± 1 nM.
`COCCOCCOc1ccc(N2Cc3ccc(O)cc3OC2=O)cc1` [Compound C2] gave a Kd of 16 ± 5 nM.
`O=C1Oc2cc(O)ccc2CN1c1ccc(OCCOCCN2CCOCC2)cc1` [Compound C3, 7-Hydroxy-3-(4-(2-(2-morpholinoethoxy)ethoxy)phenyl)-3,4-dihydro-2H-benzo[e][1,3]oxazin-2-one] was tested, and the Kd was 23 ± 13 nM.
In the case of `O=C(O)CCCOc1ccc(N2Cc3ccc(O)cc3OC2=O)cc1` [Compound C4], the Kd is reported as 22 ± 8 nM.
For `O=C1Oc2cc(O)ccc2CN1c1ccc(C23CC4CC(CC(C4)C2)C3)cc1` [Compound C6], the Kd was 828 ± 44 nM.
For `O=C1Oc2cc(O)ccc2CN1c1ccc(OCCOCCOCCN2CCOCC2)cc1` [Compound C7], the Kd was 23 ± 6 nM.
`O=C1Oc2cc(O)ccc2CN1c1ccc(OCCN2CCOCC2)cc1` [Compound C8, 7-Hydroxy-3-(4-(2-morpholinoethoxy)phenyl)-3,4-dihydro-2H-benzo[e][1,3]oxazin-2-one] gave a Kd of 12 ± 1 nM.
`O=C1Oc2cc(O)ccc2CN1c1ccc(OCCOCCOc2cccc(N3CCOCC3)c2)cc1` [Compound C9] gave a Kd of 53 ± 7 nM.
Compound `O=C1Oc2cc(O)ccc2CN1c1ccc(OCCOCCN2CCOc3ccccc32)cc1` [Compound C10, 3-(4-(2-(2-(2,3-Dihydro-4H-benzo[b][1,4]oxazin-4-yl)ethoxy)ethoxy)phenyl)-7-hydroxy-3,4-dihydro-2H-benzo[e][1,3]oxazin-2-one] has a Kd of 16 ± 1 nM.
